Results: patent US9758485B2, “Compounds for controlling arthropods” (priority 2013, dated 2017)

Test system: Musca domestica
Test: Musca domestica test
Format: in vivo
Conditions: application rate 100 ppm; adult houseflies; kill after 2 days
Method in brief: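 Feeding exposure: adult Musca domestica, 10 per vessel, given a sponge with sugar solution and test formulation at the desired concentration; % mortality determined on day 2.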

SMILES | efficacy [%]
N#CC1(NC(=O)c2cc(-c3cnn(-c4c(Cl)cc(C(F)(C(F)(F)F)C(F)(F)F)cc4C(F)(F)F)c3)cnc2Cl)CC1 [I-T3-114] | 100
Cc1cc(C(F)(C(F)(F)F)C(F)(F)F)cc(C(F)(F)F)c1-n1cc(-c2cnc(C)c(C(=O)NC3CC3)c2)cn1 [I-T3-117] | 100
Cc1cc(C(F)(C(F)(F)F)C(F)(F)F)cc(C(F)(F)F)c1-n1cc(-c2cnc(C)c(C(=O)NC3(C#N)CC3)c2)cn1 [I-T3-119] | 100
Cc1cc(C(F)(C(F)(F)F)C(F)(F)F)cc(C(F)(F)F)c1-n1cc(-c2cnc(C)c(C(=O)N(C)C3(C#N)CC3)c2)cn1 [I-T3-123] | 100

Test system: Lucilia cuprina
Test: Lucilia cuprina test
Format: in vivo
Conditions: application rate 100 ppm; L1 larvae in minced horsemeat; kill after 2 days
Method in brief: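 About 20 L1 larvae placed on minced horsemeat treated with compound, formulated in DMSO and diluted with water to test concentration. Kill in % scored after 2 days (100% = all larvae dead, 0% = none).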

SMILES | efficacy [%]
N#CC1(NC(=O)c2cc(-c3cnn(-c4c(Cl)cc(C(F)(C(F)(F)F)C(F)(F)F)cc4C(F)(F)F)c3)cnc2Cl)CC1 [I-T3-114] | 100
Cc1cc(C(F)(C(F)(F)F)C(F)(F)F)cc(C(F)(F)F)c1-n1cc(-c2cnc(C)c(C(=O)NC3CC3)c2)cn1 [I-T3-117] | 100
Cc1cc(C(F)(C(F)(F)F)C(F)(F)F)cc(C(F)(F)F)c1-n1cc(-c2cnc(C)c(C(=O)NC3(C#N)CC3)c2)cn1 [I-T3-119] | 100
Cc1cc(C(F)(C(F)(F)F)C(F)(F)F)cc(C(F)(F)F)c1-n1cc(-c2cnc(C)c(C(=O)N(C)C3(C#N)CC3)c2)cn1 [I-T3-123] | 100

Test system: Boophilus microplus Parkhurst strain, SP-resistant
Test: Boophilus microplus - dip test
Format: in vivo
Conditions: application rate 100 ppm; dip of engorged adult female ticks; laying of fertile eggs, after 7 days
Method in brief: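 Adult engorged females of SP-resistant Parkhurst strain (8–10 per tube) fully immersed in compound diluted in water from a DMSO solution. Ticks then kept on filter discs in a climate-controlled room; efficacy scored from fertile egg laying at 7 days, with unclear eggs held about 42 days until hatch (100% = no fertile eggs).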

SMILES | efficacy [%]
N#CC1(NC(=O)c2cc(-c3cnn(-c4c(Cl)cc(C(F)(C(F)(F)F)C(F)(F)F)cc4C(F)(F)F)c3)cnc2Cl)CC1 [I-T3-114] | 100
Cc1cc(C(F)(C(F)(F)F)C(F)(F)F)cc(C(F)(F)F)c1-n1cc(-c2cnc(C)c(C(=O)NC3CC3)c2)cn1 [I-T3-117] | 100
Cc1cc(C(F)(C(F)(F)F)C(F)(F)F)cc(C(F)(F)F)c1-n1cc(-c2cnc(C)c(C(=O)NC3(C#N)CC3)c2)cn1 [I-T3-119] | 100
Cc1cc(C(F)(C(F)(F)F)C(F)(F)F)cc(C(F)(F)F)c1-n1cc(-c2cnc(C)c(C(=O)N(C)C3(C#N)CC3)c2)cn1 [I-T3-123] | 100

Test system: Ctenocephalides felis
Test: Ctenocephalides felis - in vitro contact tests with adult cat fleas
Format: in vivo
Conditions: application rate 5 μg/cm^2 (=500 g/ha), after 48 h (dead or moribund)
Method in brief: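 Acetone solution coated on test-tube inner walls (900 ppm gives 5 μg/cm^2). After drying, 5-10 adult cat fleas added and kept horizontal at room temperature and ambient humidity. At 48 h fleas knocked down; motionless or uncoordinated ones counted dead/moribund, giving % efficacy.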

SMILES | efficacy [%]
N#CC1(NC(=O)c2cc(-c3cnn(-c4c(Cl)cc(C(F)(C(F)(F)F)C(F)(F)F)cc4C(F)(F)F)c3)cnc2Cl)CC1 [I-T3-114] | 100
Cc1cc(C(F)(C(F)(F)F)C(F)(F)F)cc(C(F)(F)F)c1-n1cc(-c2cnc(C)c(C(=O)NC3CC3)c2)cn1 [I-T3-117] | 100
Cc1cc(C(F)(C(F)(F)F)C(F)(F)F)cc(C(F)(F)F)c1-n1cc(-c2cnc(C)c(C(=O)NC3(C#N)CC3)c2)cn1 [I-T3-119] | 100
Cc1cc(C(F)(C(F)(F)F)C(F)(F)F)cc(C(F)(F)F)c1-n1cc(-c2cnc(C)c(C(=O)N(C)C3(C#N)CC3)c2)cn1 [I-T3-123] | 100

Test system: not listed separately
Test: logP determination by HPLC on a reversed-phase column (C18), EEC Directive 79/831 Annex V.A8
Format: physicochemical
Conditions: HPLC-MS, reversed-phase column (C18)

SMILES | log P
N#CC1(NC(=O)c2cc(-c3cnn(-c4c(Cl)cc(C(F)(C(F)(F)F)C(F)(F)F)cc4C(F)(F)F)c3)cnc2Cl)CC1 [I-T3-114] | 4.0
Cc1cc(C(F)(C(F)(F)F)C(F)(F)F)cc(C(F)(F)F)c1-n1cc(-c2cnc(C)c(C(=O)NC3CC3)c2)cn1 [I-T3-117] | 3.5
Cc1cc(C(F)(C(F)(F)F)C(F)(F)F)cc(C(F)(F)F)c1-n1cc(-c2cnc(C)c(C(=O)NC3(C#N)CC3)c2)cn1 [I-T3-119] | 3.6
Cc1cc(C(F)(C(F)(F)F)C(F)(F)F)cc(C(F)(F)F)c1-n1cc(-c2cnc(C)c(C(=O)N(C)C3(C#N)CC3)c2)cn1 [I-T3-123] | 3.9

Test system: Rhipicephalus sanguineus
Test: Rhipicephalus sanguineus - in vitro contact tests with adult brown dog ticks
Format: in vivo
Conditions: application rate 1 μg/cm^2, after 48 h (dead or moribund)
Method in brief: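 Test compound was dissolved in acetone p.a. (9 mg in 1 ml, then diluted), and 250 μl were spread evenly over the inner surface of 25 ml test tubes on an orbital shaker at 30 rpm for 2 h. Once the solvent evaporated, 5-10 adult Rhipicephalus sanguineus ticks were sealed in, kept dark at room temperature, and after 48 h placed on a 45-50° C. hotplate to score dead or moribund ticks.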

SMILES | efficacy [%]
N#CC1(NC(=O)c2cc(-c3cnn(-c4c(Cl)cc(C(F)(C(F)(F)F)C(F)(F)F)cc4C(F)(F)F)c3)cnc2Cl)CC1 [I-T3-114] | 100
Cc1cc(C(F)(C(F)(F)F)C(F)(F)F)cc(C(F)(F)F)c1-n1cc(-c2cnc(C)c(C(=O)N(C)C3(C#N)CC3)c2)cn1 [I-T3-123] | 80

Same assay, conditions: application rate 5 μg/cm^2, after 48 h (dead or moribund)

SMILES | efficacy [%]
Cc1cc(C(F)(C(F)(F)F)C(F)(F)F)cc(C(F)(F)F)c1-n1cc(-c2cnc(C)c(C(=O)NC3CC3)c2)cn1 [I-T3-117] | 100
Cc1cc(C(F)(C(F)(F)F)C(F)(F)F)cc(C(F)(F)F)c1-n1cc(-c2cnc(C)c(C(=O)NC3(C#N)CC3)c2)cn1 [I-T3-119] | 100

Test system: Boophilus microplus
Test: Boophilus microplus - injection test
Format: in vivo
Conditions: application rate 20 μg/animal; injected into engorged adult female ticks; laying of fertile eggs, after 7 days
Method in brief: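 Engorged adult female ticks, five per dose, were injected in the abdomen with 1 μl of active ingredient diluted in dimethyl sulphoxide. Animals were kept in dishes under climate control, and egg fertility was assessed after 7 days.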

SMILES | efficacy [%]
N#CC1(NC(=O)c2cc(-c3cnn(-c4c(Cl)cc(C(F)(C(F)(F)F)C(F)(F)F)cc4C(F)(F)F)c3)cnc2Cl)CC1 [I-T3-114] | 100
Cc1cc(C(F)(C(F)(F)F)C(F)(F)F)cc(C(F)(F)F)c1-n1cc(-c2cnc(C)c(C(=O)NC3CC3)c2)cn1 [I-T3-117] | 100
Cc1cc(C(F)(C(F)(F)F)C(F)(F)F)cc(C(F)(F)F)c1-n1cc(-c2cnc(C)c(C(=O)NC3(C#N)CC3)c2)cn1 [I-T3-119] | 100
Cc1cc(C(F)(C(F)(F)F)C(F)(F)F)cc(C(F)(F)F)c1-n1cc(-c2cnc(C)c(C(=O)N(C)C3(C#N)CC3)c2)cn1 [I-T3-123] | 100

Test system: Ctenocephalides felis
Test: Ctenocephalides felis - oral test
Format: in vivo
Conditions: application rate 100 ppm in citrated cattle blood; adult fleas; kill after 2 days
Method in brief: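 Oral exposure of unfed adult fleas, roughly 20 per chamber, to compound-spiked citrated cattle blood taken up across a parafilm membrane. Read-out is percent kill at 2 days, where 100% means every flea dead.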

SMILES | efficacy [%]
N#CC1(NC(=O)c2cc(-c3cnn(-c4c(Cl)cc(C(F)(C(F)(F)F)C(F)(F)F)cc4C(F)(F)F)c3)cnc2Cl)CC1 [I-T3-114] | 100
Cc1cc(C(F)(C(F)(F)F)C(F)(F)F)cc(C(F)(F)F)c1-n1cc(-c2cnc(C)c(C(=O)NC3CC3)c2)cn1 [I-T3-117] | 100
Cc1cc(C(F)(C(F)(F)F)C(F)(F)F)cc(C(F)(F)F)c1-n1cc(-c2cnc(C)c(C(=O)NC3(C#N)CC3)c2)cn1 [I-T3-119] | 100
Cc1cc(C(F)(C(F)(F)F)C(F)(F)F)cc(C(F)(F)F)c1-n1cc(-c2cnc(C)c(C(=O)N(C)C3(C#N)CC3)c2)cn1 [I-T3-123] | 100

Test system: Amblyomma hebraeum
Test: Amblyomma hebraeum test (tick nymphs, immersion)
Format: in vivo
Conditions: application rate 100 ppm; tick nymphs immersed for one minute; kill after 42 days
Experimental: Solvent: dimethyl sulphoxide
To produce an appropriate active ingredient formulation, 10 mg of active ingredient are mixed with 0.5 ml of dimethyl sulphoxide, and the concentrate is diluted with water to the desired concentration.
Tick nymphs (Amblyomma hebraeum) are placed into perforated plastic beakers and immersed in the desired concentration for one minute. The ticks are transferred on filter paper into a Petri dish and stored in a climate-controlled cabinet.
After 42 days, the kill in % is determined. 100% means that all of the ticks have been killed; 0% means that none of the ticks have been killed.

SMILES | efficacy [%]
N#CC1(NC(=O)c2cc(-c3cnn(-c4c(Cl)cc(C(F)(C(F)(F)F)C(F)(F)F)cc4C(F)(F)F)c3)cnc2Cl)CC1 [I-T3-114] | 100
Cc1cc(C(F)(C(F)(F)F)C(F)(F)F)cc(C(F)(F)F)c1-n1cc(-c2cnc(C)c(C(=O)NC3CC3)c2)cn1 [I-T3-117] | 100
Cc1cc(C(F)(C(F)(F)F)C(F)(F)F)cc(C(F)(F)F)c1-n1cc(-c2cnc(C)c(C(=O)NC3(C#N)CC3)c2)cn1 [I-T3-119] | 100
Cc1cc(C(F)(C(F)(F)F)C(F)(F)F)cc(C(F)(F)F)c1-n1cc(-c2cnc(C)c(C(=O)N(C)C3(C#N)CC3)c2)cn1 [I-T3-123] | 80
